Data published in PubChem BioAssay (NCI).
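Method: 48-hour compound exposure of cells in 96-well plates, five concentrations, linear interpolation of endpoints. TGI marks complete inhibition of growth.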

Key:
Experiment in all cases: growth of human tumour cells (NCI), 48 h
SNB-19 CNS = tested on: SNB-19 CNS
CCRF-CEM leukemia = tested on: CCRF-CEM leukemia
RXF 393 renal = tested on: RXF 393 renal
KM20L2 colon = tested on: KM20L2 colon
RPMI-8226 leukemia = tested on: RPMI-8226 leukemia
UACC-62 melanoma = tested on: UACC-62 melanoma
SW-620 colon = tested on: SW-620 colon
DMS 273 small cell lung = tested on: DMS 273 small cell lung
OVCAR-3 ovarian = tested on: OVCAR-3 ovarian
COLO 205 colon = tested on: COLO 205 colon
KM12 colon = tested on: KM12 colon
HOP-18 NSCLC = tested on: HOP-18 NSCLC
A498 renal = tested on: A498 renal
HT29 colon = tested on: HT29 colon
ACHN renal = tested on: ACHN renal
NCI-H460 lung = tested on: NCI-H460 lung
K-562 leukemia = tested on: K-562 leukemia
SR leukemia = tested on: SR leukemia
SN12C renal = tested on: SN12C renal
MOLT-4 leukemia = tested on: MOLT-4 leukemia
MALME-3M melanoma = tested on: MALME-3M melanoma
SK-OV-3 ovarian = tested on: SK-OV-3 ovarian
SNB-75 CNS = tested on: SNB-75 CNS
A549 NSCLC = tested on: A549 NSCLC
HCC-2998 colon = tested on: HCC-2998 colon
DMS 114 small cell lung = tested on: DMS 114 small cell lung
NCI-H23 lung = tested on: NCI-H23 lung
HCT-116 colon = tested on: HCT-116 colon
LXFL 529 NSCLC = tested on: LXFL 529 NSCLC
HOP-62 NSCLC = tested on: HOP-62 NSCLC
HCT-15 colon = tested on: HCT-15 colon
UO-31 renal = tested on: UO-31 renal
OVCAR-5 ovarian = tested on: OVCAR-5 ovarian
SK-MEL-5 melanoma = tested on: SK-MEL-5 melanoma
DLD-1 colon = tested on: DLD-1 colon
OVCAR-4 ovarian = tested on: OVCAR-4 ovarian
EKVX NSCLC = tested on: EKVX NSCLC
OVCAR-8 ovarian = tested on: OVCAR-8 ovarian
786-0 renal = tested on: 786-0 renal
LOX IMVI melanoma = tested on: LOX IMVI melanoma
M19-MEL melanoma = tested on: M19-MEL melanoma
NCI-H522 lung = tested on: NCI-H522 lung
SK-MEL-28 melanoma = tested on: SK-MEL-28 melanoma
HL-60(TB) leukemia = tested on: HL-60(TB) leukemia
CAKI-1 renal = tested on: CAKI-1 renal
SNB-78 CNS = tested on: SNB-78 CNS
SF-295 CNS = tested on: SF-295 CNS
IGROV1 ovarian = tested on: IGROV1 ovarian
U251 CNS = tested on: U251 CNS
M14 melanoma = tested on: M14 melanoma
SK-MEL-2 melanoma = tested on: SK-MEL-2 melanoma
TK-10 renal = tested on: TK-10 renal
SF-268 CNS = tested on: SF-268 CNS
NCI-H226 lung = tested on: NCI-H226 lung
UACC-257 melanoma = tested on: UACC-257 melanoma
SF-539 CNS = tested on: SF-539 CNS
XF 498 CNS = tested on: XF 498 CNS

Cc1cc(C)c2c(c1)CSCc1cc(C)cc(C)c1-2 gave a TGI (SNB-19 CNS) greater than 100 µM, a TGI (CCRF-CEM leukemia) of 45.5 µM and a TGI (RXF 393 renal) of 65.3 µM. It also gave a TGI (KM20L2 colon) greater than 100 µM, a TGI (RPMI-8226 leukemia) of 56.4 µM and a TGI (UACC-62 melanoma) greater than 100 µM. For the same molecule, the TGI (SW-620 colon) was greater than 100 µM, the TGI (DMS 273 small cell lung) was greater than 100 µM and the TGI (OVCAR-3 ovarian) was greater than 100 µM. It also gave a TGI (COLO 205 colon) of 73.3 µM, a TGI (KM12 colon) greater than 100 µM and a TGI (HOP-18 NSCLC) greater than 100 µM. The TGI (A498 renal) was 79.9 µM, the TGI (HT29 colon) was 47.1 µM and the TGI (ACHN renal) was greater than 100 µM. For the same molecule, the TGI (NCI-H460 lung) was 56 µM, the TGI (K-562 leukemia) was greater than 100 µM and the TGI (SR leukemia) was 47.4 µM. For the same molecule, the TGI (SN12C renal) was greater than 100 µM, the TGI (MOLT-4 leukemia) was 41.4 µM and the TGI (MALME-3M melanoma) was 56.8 µM. For the same molecule, the TGI (SK-OV-3 ovarian) was greater than 100 µM, the TGI (SNB-75 CNS) was greater than 100 µM and the TGI (A549 NSCLC) was greater than 100 µM. For the same molecule, the TGI (HCC-2998 colon) was greater than 100 µM, the TGI (DMS 114 small cell lung) was 69.9 µM and the TGI (NCI-H23 lung) was greater than 100 µM. It also gave a TGI (HCT-116 colon) of 60.5 µM, a TGI (LXFL 529 NSCLC) greater than 100 µM and a TGI (HOP-62 NSCLC) of 69.8 µM. For the same molecule, the TGI (HCT-15 colon) was greater than 100 µM, the TGI (UO-31 renal) was greater than 100 µM and the TGI (OVCAR-5 ovarian) was greater than 100 µM. The TGI (SK-MEL-5 melanoma) was 65 µM, the TGI (DLD-1 colon) was greater than 100 µM and the TGI (OVCAR-4 ovarian) was greater than 100 µM. It also gave a TGI (EKVX NSCLC) of 81.9 µM, a TGI (OVCAR-8 ovarian) greater than 100 µM and a TGI (786-0 renal) greater than 100 µM. The TGI (LOX IMVI melanoma) was 33.2 µM, the TGI (M19-MEL melanoma) was 69.2 µM and the TGI (NCI-H522 lung) was 48 µM. The TGI (SK-MEL-28 melanoma) was greater than 100 µM, the TGI (HL-60(TB) leukemia) was 43.3 µM and the TGI (CAKI-1 renal) was 76.8 µM. For the same molecule, the TGI (SNB-78 CNS) was 62 µM, the TGI (SF-295 CNS) was 68.3 µM and the TGI (IGROV1 ovarian) was greater than 100 µM. It also gave a TGI (U251 CNS) of 40.5 µM, a TGI (M14 melanoma) of 91.8 µM and a TGI (SK-MEL-2 melanoma) of 43.9 µM. The TGI (TK-10 renal) was greater than 100 µM, the TGI (SF-268 CNS) was greater than 100 µM and the TGI (NCI-H226 lung) was greater than 100 µM. It also gave a TGI (UACC-257 melanoma) of 74.1 µM.

Work on O=C1c2ccccc2C(=O)N1C/C=N/NS(=O)(=O)c1cccc([N+](=O)[O-])c1 yielded a TGI (SNB-19 CNS) greater than 100 µM, a TGI (CCRF-CEM leukemia) greater than 100 µM and a TGI (RXF 393 renal) greater than 100 µM. For the same molecule, the TGI (KM20L2 colon) was greater than 100 µM, the TGI (RPMI-8226 leukemia) was greater than 100 µM and the TGI (UACC-62 melanoma) was greater than 100 µM. For the same molecule, the TGI (SW-620 colon) was greater than 100 µM, the TGI (DMS 273 small cell lung) was greater than 100 µM and the TGI (COLO 205 colon) was greater than 100 µM. The TGI (KM12 colon) was greater than 100 µM, the TGI (A498 renal) was greater than 100 µM and the TGI (SF-539 CNS) was greater than 100 µM. For the same molecule, the TGI (HT29 colon) was greater than 100 µM, the TGI (ACHN renal) was greater than 100 µM and the TGI (NCI-H460 lung) was greater than 100 µM. It also gave a TGI (K-562 leukemia) greater than 100 µM, a TGI (SR leukemia) greater than 100 µM and a TGI (SN12C renal) greater than 100 µM. For the same molecule, the TGI (MOLT-4 leukemia) was greater than 100 µM, the TGI (MALME-3M melanoma) was greater than 100 µM and the TGI (SNB-75 CNS) was greater than 100 µM. For the same molecule, the TGI (A549 NSCLC) was greater than 100 µM, the TGI (HCC-2998 colon) was greater than 100 µM and the TGI (DMS 114 small cell lung) was greater than 100 µM. For the same molecule, the TGI (NCI-H23 lung) was greater than 100 µM, the TGI (HCT-116 colon) was greater than 100 µM and the TGI (LXFL 529 NSCLC) was greater than 100 µM. The TGI (HOP-62 NSCLC) was greater than 100 µM, the TGI (HCT-15 colon) was greater than 100 µM and the TGI (UO-31 renal) was greater than 100 µM. The TGI (XF 498 CNS) was greater than 100 µM, the TGI (SK-MEL-5 melanoma) was greater than 100 µM and the TGI (DLD-1 colon) was greater than 100 µM. The TGI (OVCAR-4 ovarian) was greater than 100 µM, the TGI (EKVX NSCLC) was greater than 100 µM and the TGI (OVCAR-8 ovarian) was greater than 100 µM. The TGI (786-0 renal) was greater than 100 µM, the TGI (LOX IMVI melanoma) was greater than 100 µM and the TGI (M19-MEL melanoma) was greater than 100 µM. It also gave a TGI (NCI-H522 lung) greater than 100 µM, a TGI (HL-60(TB) leukemia) greater than 100 µM and a TGI (CAKI-1 renal) greater than 100 µM. For the same molecule, the TGI (SF-295 CNS) was greater than 100 µM, the TGI (IGROV1 ovarian) was greater than 100 µM and the TGI (U251 CNS) was greater than 100 µM. The TGI (M14 melanoma) was greater than 100 µM, the TGI (SK-MEL-2 melanoma) was greater than 100 µM and the TGI (TK-10 renal) was greater than 100 µM. For the same molecule, the TGI (SF-268 CNS) was greater than 100 µM and the TGI (UACC-257 melanoma) was greater than 100 µM.
